In brackets after ≈: the same amount, converted by molar mass.
Columns and labels:
[1] = Terminal half life in rat at 1 mg/kg, iv; assay type: ADME, organism-based; design: dose 1 mg/kg, route intravenous; conditions: in vivo, read-out: beta t1/2 (converted)
[2] = Volume of distribution at steady state in rat at 1 mg/kg, iv; assay type: ADME, organism-based; design: dose 1 mg/kg, route intravenous; conditions: in vivo, read-out: Vdss
[3] = Clearance in rat at 1 mg/kg, iv; assay type: ADME, organism-based; design: dose 1 mg/kg, route intravenous; conditions: in vivo
[4] = Apparent permeability from apical to basolateral side in human Caco2 cells at 12.5 uM; assay type: ADME, cell-based; conditions: Caco-2
[5] = Apparent permeability from basolateral to apical side in human Caco2 cells at 12.5 uM; assay type: ADME, cell-based; conditions: Caco-2
[6] = Cmax in rat at 10 mg/kg, po; assay type: ADME, organism-based; design: dose 10 mg/kg, route oral; conditions: in vivo
[7] = AUC (0 to infinity) in rat at 1 mg/kg, iv; assay type: ADME, organism-based; design: time infinity, dose 1 mg/kg, route intravenous; conditions: plasma
[8] = Cmax in rat at 1 mg/kg, iv; assay type: ADME, organism-based; design: dose 1 mg/kg, route intravenous; conditions: in vivo
[9] = Oral bioavailability in rat at 10 mg/kg; assay type: ADME, organism-based; conditions: in vivo
[10] = Primary phase half life in rat at 1 mg/kg, iv; assay type: ADME, organism-based; design: dose 1 mg/kg, route intravenous; conditions: in vivo, read-out: alphat1/2
[11] = Thermodynamic solubility of the compound in aqueous buffer at pH 7.4 at 37 degC by HPLC-UV analysis; assay type: physicochemical; conditions: read-out: Therm_solubility

half-life [1]: 5.3 h | Vd [2]: 0.8 L/kg | clearance [3]: 6.6 mL/min/kg | Papp A→B at 12.5 µM [4]: 18 ×10⁻⁶ cm/s | Papp B→A at 12.5 µM [5]: 10 ×10⁻⁶ cm/s | Cmax [6]: 367 ng/mL | AUC(0-inf) [7]: 2530 ng·h/mL | Cmax [8]: 2000 ng/mL | bioavailability [9]: 10% | half-life [10]: < 1 h | solubility thermodynamic [11]: 3 µg/mL (≈ 8.32 µM)
SMILES: Cc1ccc(C(=O)NC2CC2)cc1-c1ccc2c(c1)NC(=O)C21CCCC1
